Data taken from patent US20040110681A1, “Method to identify targeting molecules” (priority 2002, published 2004).
Where “and” joins values, the source holds several entries; their conditions need not be identical. Identical values can stand only once.

Columns and labels:
[1] = tested on: brain, lung, liver, kidney, blood and spleen; assay: Pharmacokinetic (PK) analysis of T7-CAGALCY and T7-lacZ phage, plaque assay; format: in vivo, FVB female mice
Procedure: A3-T7 was amplified in the host strain BLT-5615 in the presence of 1 mM IPTG and purified. T7-lacZ phage were amplified by large scale plating on LB plates. The plates were incubated at 25° C. overnight, and phage were eluted with phage extraction buffer (20 mM Tris-HCl, pH 8.0, 100 mM NaCl, 6 mM MgSO4) overnight at 4° C. with gentle rocking. The extracted phage were pooled and purified. In the PK study, in paragraph A below, three mice were used per time point, co-injected with 1×10^10 pfu of each phage. Time points were 2 min, 10 min, 30 min, 1 hr, 2 hr, 4 hr, 6 hr, 12 hr, and 24 hr.
Mice were anesthetized with Avertin 2-4 minutes before the scheduled harvest time (the mice assigned to the 2 minute time-point were anesthetized prior to administration of the phage). The brain, lung, liver, kidney, blood and spleen were harvested at 2 min, 10 min, 30 min, 1 hr, 2 hr, 4 hr, 6 hr, 12 hr, and 24 hr. The phage contents in each organ were determined by plaque assay in the presence of X-gal in top agar.

[2] = tested on: brain; assay: Co-injection of A3 and control T7-LacZ phage, plaque assay of tissues and blood; format: in vivo, BALB/c mice; conditions: 10^9 pfu of each phage, tail vein, 1 hour circulation
Procedure: Plaque assays were used to determine the relative amounts of phage contained in blood and brain. For the blood assays, 300 μl of blood was drawn into 300 μl of 100 mM sodium citrate before perfusion. Plasma was recovered and saved for plaque assay. The phage content was assessed by mixing aliquots of the tissue homogenate or plasma with the bacterial BLT-5615 host, then plating on agar plates.
40 μl of 40 mg/ml of X-gal in DMF was added into 3 ml of top agar in each plate.
A mixture of the two phage (10^9 pfu of each phage) was injected into the tail veins of non-anesthetized BALB/c mice. […] Another measure of selective retention is to compare target organ to blood levels of the test phage.

[3] = tested on: brain tissue; assay: Individual peptide variants of A3 on phage, brain selectivity index vs T7-lacZ; format: in vivo, FVB or BALB/c mice; conditions: 2 hours circulation
Procedure: In this example, various individual peptide variants of A3 were tested in vivo for their ability to target brain or other tissues. […] The phage contents of each organ were determined by plaque assay in the presence of X-gal (500 μg/mL) in top agar.
Thus, selectively indices of less than 10 are considered low, those between 10 and […] are considered moderate and those over 100 are considered high.

[4] = tested on: brain; assay: CX4CY phage library, one round of in vivo panning to brain; parameters: species or system BALB/c mice; conditions: 4 hrs post phage injection
Procedure: A CX4CY library was prepared and tested. 1×10^10 pfu of the library phage were injected into 6 BALB/c mice (3 mice/time point). At 30 min and 4 hr post-injection, brain was harvested and processed as described above. Similar numbers of plaques were picked individually, and the insert sequence amplified by PCR and sequenced. Alignment analysis of the sequence data was performed with a version of Clustral/W.

[5] = tested on: brain; assay: kSAR: co-injection of all 20 CAGAXCY (position 5) phage variants, sequence frequency in brain; format: in vivo, BALB/c mice
Procedure: To determine the optimum amino acid for position 5, all 20 variants at this position were injected. For co-injection of all 20 variants of CAGAXCY phage, individual phage were grown up and titered. Equivalent amounts of each phage type were added to PBS and 200 μL dose of the mixture was injected into 3 BALB/c mice per group (two time points of 30 minutes and 4 hours were studied, total of 6 mice). At 30 min and 4 hrs post injection, the mice were anesthetized, perfused and blood and brain were harvested. Aliquots of both the initial phage pool used for dosing as well as brain tissue samples were plated out, and approximately 100 individual plaques from each set were amplified by PCR using the T7 Super up primer method and sequenced using a CEQ 2000XL sequencer (Beckman Coulter, Calif.).
A total of 107 individual phage from the initial mixture used for dosing were sequenced to verify the relative abundance of the individual phage within the administered dose and these were compared with the relative frequency of the different phage recovered from brain after 30 minutes or 4 hours of circulation. There was a marked and rapid shift in frequency even by 30 minutes, where there was a marked enrichment of phage expressing N at the X5 position, (from 7% in the initial pool to 49%), M (from 5% to 24%) or L (2.8% to 12%) at 30 minutes.

[6] = tested on: brain, lung, liver, kidney, colon; assay: Effect of dose on the brain-targeting properties of T7-CAGALCY (SI, SPI); format: in vivo, FVB female mice; conditions: for Organ Specificity Index (SPI), ratio of SI brain to colon / Organ Specificity Index (SPI), ratio of SI brain to kidney / Organ Specificity Index (SPI), ratio of SI brain to liver / Organ Specificity Index (SPI), ratio of SI brain to lung / Selectivity index (SI), brain / Selectivity index (SI), colon / Selectivity index (SI), kidney / Selectivity index (SI), liver / Selectivity index (SI), lung: 4 hours; for Organ Specificity Index (SPI), ratio of SI brain to colon / Organ Specificity Index (SPI), ratio of SI brain to kidney / Organ Specificity Index (SPI), ratio of SI brain to liver / Organ Specificity Index (SPI), ratio of SI brain to lung: mean; for Selectivity index (SI), brain / Selectivity index (SI), colon / Selectivity index (SI), kidney / Selectivity index (SI), liver / Selectivity index (SI), lung: mean ± SEM
Procedure: In the dose response study, in paragraph B below, three mice were used per dose, co-injected with 1×10^7, 1×10^8, 1×10^9, 1×10^10, 1×10^11 pfu of each phage.
For each dose, three mice were injected. Four hours after phage administration, phage were recovered from the brain, lung, liver, kidney, colon, and blood.
This was measured as A3-T7 phage yield per gram tissue from various organs normalized by the yield/g tissue of the control phage.

[7] = tested on: brain; assay: Head to head comparison of CAGAXCY variants (L5, N5, M5) vs control lacZ phage; format: in vivo; conditions: 6 hours after administration vs 2 hours

CAGALCY [T7-A3] was tested, and the “ratio of yield/g brain and yield/mL blood between T7-A3 and T7-lacZ phage” value ([1]; 2 hr) was 250, the “Selectivity index (SI), brain” value ([1]; 2 hr, 1×10^10 pfu) was 51 and the “Selectivity index (SI), lung” value ([1]; 2 hr, 1×10^10 pfu) was 16.0. For the same substance, the “selectivity index (SI), spleen” value ([1]; 2 hr, 1×10^10 pfu) was 1.98, the “relative specificity for brain (SI brain compared to lung)” value ([1]; 4 hour time point) was 6 fold and the “ratio of yield/g brain and yield/mL blood between T7-A3 and T7-lacZ phage” value ([1]; 4 hr) was 1200. For the same substance, the “Selectivity index (SI), brain” value ([1]; 4 hr, 1×10^10 pfu) was 280 and 288, the “Selectivity index (SI), liver” value ([1]; 4 hr, 1×10^10 pfu) was 4.62 and the “Selectivity index (SI), lung” value ([1]; 4 hr, 1×10^10 pfu) was 54.8 and 47. The “selectivity index, brain” value ([1]; difference of half-lives in blood taken into account) was “over 100”, the “brain to blood ratio after normalization to control phage” value [2] was over 100 fold and the “Brain Targeting Activity” value ([3]; 0.5-1×10^10 pfu co-injected with T7-lacZ) was “Yes”. The “Selectivity index (BALB/C mice)” value ([3]; brain tissue, BALB/C mice) was 1000, the “Selectivity index (FVB female)” value ([3]; brain tissue, FVB female mice) was over 200 and the “enrichment among 83 sequences sampled from the brain” value [4] was “no enriched phage”. For the same substance, the “frequency of phage variant recovered from brain” value ([5]; 30 minutes after injection of 20-variant mixture) was 12%, the “frequency of phage variant recovered from brain” value ([5]; 4 hours after injection of 20-variant mixture) was 7.5% and the “Organ Specificity Index (SPI), ratio of SI brain to colon” value ([6]; 1 × 10^7 pfu) was 4.57. For the same substance, the “Organ Specificity Index (SPI), ratio of SI brain to kidney” value ([6]; 1 × 10^7 pfu) was 1.92, the “Organ Specificity Index (SPI), ratio of SI brain to liver” value ([6]; 1 × 10^7 pfu) was 2.34 and the “Organ Specificity Index (SPI), ratio of SI brain to lung” value ([6]; 1 × 10^7 pfu) was 4.23. The “Selectivity index (SI), brain” value ([6]; 1 × 10^7 pfu) was 13.2, the “Selectivity index (SI), colon” value ([6]; 1 × 10^7 pfu) was 1.8 ± 1.1 and the “Selectivity index (SI), kidney” value ([6]; 1 × 10^7 pfu) was 5.0 ± 3.1. The “Selectivity index (SI), liver” value ([6]; 1 × 10^7 pfu) was 6.3 ± 5.4, the “Selectivity index (SI), lung” value ([6]; 1 × 10^7 pfu) was 1.9 ± 0.8 and the “Organ Specificity Index (SPI), ratio of SI brain to colon” value ([6]; 1 × 10^8 pfu) was 2.82. For the same substance, the “Organ Specificity Index (SPI), ratio of SI brain to kidney” value ([6]; 1 × 10^8 pfu) was 2.08, the “Organ Specificity Index (SPI), ratio of SI brain to liver” value ([6]; 1 × 10^8 pfu) was 3.27 and the “Organ Specificity Index (SPI), ratio of SI brain to lung” value ([6]; 1 × 10^8 pfu) was 0.65. For the same substance, the “Selectivity index (SI), brain” value ([6]; 1 × 10^8 pfu) was 10.5 and 10, the “Selectivity index (SI), colon” value ([6]; 1 × 10^8 pfu) was 4.3 ± 1.8 and the “Selectivity index (SI), kidney” value ([6]; 1 × 10^8 pfu) was 5.4 ± 1.3. The “Selectivity index (SI), liver” value ([6]; 1 × 10^8 pfu) was 4.2 ± 1.9, the “Selectivity index (SI), lung” value ([6]; 1 × 10^8 pfu) was 14.3 ± 6.8 and the “Organ Specificity Index (SPI), ratio of SI brain to colon” value ([6]; 1 × 10^9 pfu) was 8.87. The “Organ Specificity Index (SPI), ratio of SI brain to kidney” value ([6]; 1 × 10^9 pfu) was 3.27, the “Organ Specificity Index (SPI), ratio of SI brain to liver” value ([6]; 1 × 10^9 pfu) was 26 and the “Organ Specificity Index (SPI), ratio of SI brain to lung” value ([6]; 1 × 10^9 pfu) was 3.23. For the same substance, the “Selectivity index (SI), brain” value ([6]; 1 × 10^9 pfu) was 121, the “Selectivity index (SI), colon” value ([6]; 1 × 10^9 pfu) was 18.3 ± 6.8 and the “Selectivity index (SI), kidney” value ([6]; 1 × 10^9 pfu) was 47.3 ± 18.5. For the same substance, the “Selectivity index (SI), liver” value ([6]; 1 × 10^9 pfu) was 8.2 ± 3.1, the “Selectivity index (SI), lung” value ([6]; 1 × 10^9 pfu) was 47.3 ± 12.5 and the “Organ Specificity Index (SPI), ratio of SI brain to lung” value ([6]; 1 × 10^10 pfu) was 4.03. For the same substance, the “Selectivity index (SI), brain” value ([6]; 1 × 10^10 pfu) was 150, the “Selectivity index (SI), colon” value ([6]; 1 × 10^10 pfu) was 7.9 ± 1.2 and the “Selectivity index (SI), kidney” value ([6]; 1 × 10^10 pfu) was 20.7 ± 6.4. For the same substance, the “Selectivity index (SI), liver” value ([6]; 1 × 10^10 pfu) was 8.9 ± 5.1, the “Selectivity index (SI), lung” value ([6]; 1 × 10^10 pfu) was 40.7 ± 9.2 and the “Organ Specificity Index (SPI), ratio of SI brain to lung” value ([6]; 1 × 10^11 pfu) was 3.3. The “Selectivity index (SI), brain” value ([6]; 1 × 10^11 pfu) was 118 ± 47.3, the “Selectivity index (SI), colon” value ([6]; 1 × 10^11 pfu) was 5.3 ± 1.6 and the “Selectivity index (SI), kidney” value ([6]; 1 × 10^11 pfu) was 10.3 ± 1.7. For the same substance, the “Selectivity index (SI), liver” value ([6]; 1 × 10^11 pfu) was 4.2 ± 0.4, the “Selectivity index (SI), lung” value ([6]; 1 × 10^11 pfu) was 35.3 ± 11.0 and the “SPI values for lung, liver, kidney or colon compared to the other organs” value ([6]; all doses tested) was “lower than 10”. The “change of brain SI values” [7] was “increase further”.
